One block for each compound: values may come before it.
Legend:
[1] = test system: HCT116 cells; test: cells; conditions: Homo sapiens, HCT-116, 72 h, read-out: Test Example 3 HCT116 GI50
Description: (§1) McCoy's 5A medium containing 10% bovine serum was used as the culture medium for each cell. […] They were added to each well of 384-well plates at 40 nL/well using an Echo555 (Labcyte Inc.). […] On the day of compound addition (day 0) and 3 days after compound addition (day 3), 10 μL/well of CellTiter-Glo® 2.0 Assay (Promega, #G9242), which is a reagent for ATP measurement, was added to each well, and the amount of luminescence in each well was measured with EnVision. From the amount of luminescence on the day of compound addition (C0) and the amount of luminescence of the compound non-addition group (C3) and compound addition group (T3) after 3 days of culture, cell viability was calculated based on the following formula. Cell viability (%)=[(T3−C0)/(C3−C0)]×100

[2] = test system: PTDSS2 gene-disrupted (PTDSS2-KO) HCT116 cells; test: cells; conditions: Homo sapiens, HCT-116, 72 h, read-out: Test Example 3 PTDSS2-KO HCT116 GI50
Description: as §1

[3] = test system: PTDSS2-KO HCT116 cell-subcutaneous transplanted model; test: Test Example 4: Antitumor activity on PTDSS2-KO HCT116 cell-subcutaneous transplanted model; type: in vivo, female BALB/c-nu/nu mice; conditions: oral
Description: HCT116 cell-subcutaneous transplanted model PTDSS2-KO HCT116 cells were transplanted to a right subcutaneous axillary portion of female BALB/c-nu/nu mice at a proportion of 1×10^7 cells/head, and when the tumor volume reached 100 to 300 mm^3 (estimated tumor volume (major axis×minor axis×minor axis/2)), mice were divided into groups of 6 or 5 mice each such that there was no difference between groups. The female BALB/c-nu/nu mice were purchased from CHARLES RIVER LABORATORIES JAPAN, INC. The compounds of Examples 58, 57, 53, 30, 42, 32, 34, 33, and 31 were orally administered from the day of grouping in the dosing schedule shown in Table 12 (twice daily, 11 successive days (BID×11), or once daily, 13 successive days (QD×13)). The tumor volume was measured until the next day of completion of the administration (test end date). 0.5% methylcellulose (MC) was administered to the vehicle control group as the vehicle.
TGI %=(1−TVt/TVc)×100 • TGI: Tumor growth suppression rate • TVt: Group mean tumor volume of compound administration group on test end date • TVc: Group mean tumor volume of vehicle control group on test end date

[4] = 10 mg/kg, QD × 13, test end date
[5] = 20 mg/kg, QD × 13, test end date
[6] = 40 mg/kg, QD × 13, test end date
[7] = 50 mg/kg, BID × 11, test end date
[8] = 100 mg/kg, BID × 11, test end date

Structure (SMILES): O=C1c2[nH]nc(-c3cccc4[nH]c(=O)oc34)c2C(c2cc(OC3CCOCC3)ccc2F)N1CC(F)(F)F (stereo not shown) [Example 9, 7-[4-{2-Fluoro-5-[(oxan-4-yl)oxy]phenyl}-6-oxo-5-(2,2,2-trifluoroethyl)-1,4,5,6-tetrahydropyrrolo[3,4-c]pyrazol-3-yl]-1,3-benzoxazol-2(3H)-one]
GI50 [1]: > 25 µM | GI50 [2]: 0.7 µM

Structure (SMILES): CC(F)(F)CN1C(=O)c2[nH]nc(-c3cccc4[nH]c(=O)oc34)c2C1c1ccc(Oc2ccc(OC(F)(F)F)cc2)cc1 (single isomer, unassigned; (-)) [Example 30, (−)-7-[5-(2,2-difluoropropyl)-6-oxo-4-{4-[4-(trifluoromethoxy)phenoxy]phenyl}-1,4,5,6,-tetrahydropyrrolo[3,4-c]pyrazol-3-yl]-1,3-benzoxazol-2-(3H)-one]
TGI (%) [3, 4]: 26% | TGI (%) [3, 5]: 50% | TGI (%) [3, 6]: 83%

Structure (SMILES): CC(F)(F)CN1C(=O)c2[nH]nc(-c3cccc4[nH]c(=O)oc34)c2C1c1ccc(Oc2ccc(Cl)cc2)cc1 (single isomer, unassigned; (-)) [Example 57, (−)-7-{4-[4-(4-Chlorophenoxy)phenyl]-5-(2,2-difluoropropyl)-6-oxo-1,4,5,6-tetrahydropyrrolo[3,4-c]pyrazol-3-yl}-1,3-benzoxazol-2(3H)-one]
TGI (%) [3, 7]: 89% | TGI (%) [3, 8]: 97%

Structure (SMILES): Cc1cc(Oc2ccc(C3c4c(-c5cccc6[nH]c(=O)oc56)n[nH]c4C(=O)N3CC(C)(F)F)cc2)ccc1OC(F)(F)F (single isomer, unassigned; (-)) [Example 32, (−)-7-[5-(2,2-difluoropropyl)-4-{4-[3-methyl-4-(trifluoromethoxy)phenoxy]phenyl}-6-oxo-1,4,5,6-tetrahydropyrrolo[3,4-c]pyrazol-3-yl]-1,3-benzoxazol-2(3H)-one]
TGI (%) [3, 4]: 95% | TGI (%) [3, 5]: 98% | TGI (%) [3, 6]: 98%

Structure (SMILES): O=C1c2[nH]nc(-c3cccc4[nH]c(=O)oc34)c2C(c2cc(Oc3ccccc3)ccc2F)N1Cc1ccccn1 (stereo not shown) [Example 13, 7-{4-(2-Fluoro-5-phenoxyphenyl)-6-oxo-5-[(pyridin-2-yl)methyl]-1,4,5,6-tetrahydropyrrolo[3,4-c]pyrazol-3-yl}-1,3-benzoxazol-2(3H)-one]
GI50 [1]: > 25 µM | GI50 [2]: 0.82 µM

Structure (SMILES): CC(F)(F)CN1C(=O)c2[nH]nc(-c3cccc4[nH]c(=O)oc34)c2C1c1ccc(Oc2ccc(OC(F)(F)F)c(Cl)c2)cc1 (single isomer, unassigned; (-)) [Example 31, (−)-7-[4-{4-[3-chloro-4-(trifluoromethoxy)phenoxy]phenyl}-5-(2,2-difluoropropyl)-6-oxo-1,4,5,6,-tetrahydropyrrolo[3,4-c]pyrazol-3-yl]-1,3-benzoxazol-2-(3H)-one]
TGI (%) [3, 6]: 88%

Structure (SMILES): CC(F)(F)CN1C(=O)c2[nH]nc(-c3cccc4[nH]c(=O)oc34)c2C1c1ccc(CN2CCC(F)(F)CC2)cc1 (single isomer, unassigned) [Example 83, 7-[4-{4-[(4,4-Difluoropiperidin-1-yl)methyl]phenyl}-5-(2,2-difluoropropyl)-6-oxo-1,4,5,6-tetrahydropyrrolo[3,4-c]pyrazol-3-yl]-1,3-benzoxazol-2(3H)-one (enantiomer)]
GI50 [1]: > 25 µM

GI50 [1]: > 25 µM | GI50 [2]: 1.1 µM
Structure (SMILES): O=C1c2[nH]nc(-c3cccc4[nH]c(=O)oc34)c2C(c2ccc(F)cc2)N1CC(F)(F)F (single isomer, unassigned) [Example 8, 7-[4-(4-Fluorophenyl)-6-oxo-5-(2,2,2-trifluoroethyl)-1,4,5,6-tetrahydropyrrolo[3,4-c]pyrazol-3-yl]-1,3-benzoxazol-2(3H)-one (enantiomer)]

Structure (SMILES): CC(F)(F)CN1C(=O)c2[nH]nc(-c3cccc4[nH]c(=O)oc34)c2C1c1ccc(Oc2ccc(Cl)cc2)cc1F (single isomer, unassigned; (-)) [Example 58, (−)-7-{4-[4-(4-Chlorophenoxy)-2-fluorophenyl]-5-(2,2-difluoropropyl)-6-oxo-1,4,5,6-tetrahydropyrrolo[3,4-c]pyrazol-3-yl}-1,3-benzoxazol-2(3H)-one]
TGI (%) ([3]; 200 mg/kg, BID × 11, test end date): 87%

Structure (SMILES): CC(F)(F)CN1C(=O)c2[nH]nc(-c3cccc(NC=O)c3)c2C1c1ccc(Cl)cc1 (stereo not shown) [Example 92, N-{3-[4-(4-Chlorophenyl)-5-(2,2-difluoropropyl)-6-oxo-1,4,5,6-tetrahydropyrrolo[3,4-c]pyrazol-3-yl]phenyl}formamide]
GI50 [1]: 11 µM

Structure (SMILES): O=C1c2[nH]nc(-c3cccc4[nH]c(=O)oc34)c2C(c2cccc(OC3CCC(F)(F)CC3)c2)N1CC1CC1 (stereo not shown) [Example 7, 7-[5-(Cyclopropylmethyl)-4-{3-[(4,4-difluorocyclohexyl)oxy]phenyl}-6-oxo-1,4,5,6-tetrahydropyrrolo[3,4-c]pyrazol-3-yl]-1,3-benzoxazol-2(3H)-one]
GI50 [1]: 15 µM

Structure (SMILES): CC(F)(F)CN1C(=O)c2[nH]nc(-c3cccc4[nH]c(=O)oc34)c2C1c1ccc(C(F)(F)c2ccccc2)cc1 (stereo not shown) [Example 91, 7-[4-{4-[Difluoro(phenyl)methyl]phenyl}-5-(2,2-difluoropropyl)-6-oxo-1,4,5,6-tetra hydropyrrolo[3,4-c]pyrazol-3-yl]-1,3-benzoxazol-2(3H)-one]
GI50 [1]: 15 µM

Structure (SMILES): CC(F)(F)CN1C(=O)c2[nH]nc(-c3cccc4[nH]c(=O)oc34)c2C1c1ccc(Oc2ccc(Cl)cc2)cn1 (stereo not shown) [Example 77, 7-{4-[5-(4-Chlorophenoxy)pyridin-2-yl]-5-(2,2-difluoropropyl)-6-oxo-1,4,5,6-tetrahydropyrrolo[3,4-c]pyrazol-3-yl]-1,3-benzoxazol-2(3H)-one]
GI50 [1]: > 25 µM

Structure (SMILES): CC(F)(F)CN1C(=O)c2[nH]nc(-c3cccc4[nH]c(=O)oc34)c2C1c1cnc(C(F)(F)F)s1 (single isomer, unassigned) [Example 24, 7-{5-(2,2-Difluoropropyl)-6-oxo-4-[2-(trifluoromethyl)-1,3-thiazol-5-yl]-1,4,5,6-tetrahydropyrrolo[3,4-c]pyrazol-3-yl}-1,3-benzoxazol-2(3H)-one (enantiomer)]
GI50 [1]: > 25 µM

Structure (SMILES): CC(F)(F)CN1C(=O)c2[nH]nc(-c3cccc4[nH]c(=O)oc34)c2C1c1ccc(Oc2cc(Cl)cc(OC(F)(F)F)c2)cc1 (single isomer, unassigned; (-)) [Example 34, (−)-7-[4-{4-[3-Chloro-5-(trifluoromethoxy)phenoxy]phenyl}-5-(2,2-difluoropropyl)-6-oxo-1,4,5,6-tetrahydropyrrolo[3,4-c]pyrazol-3-yl]-1,3-benzoxazol-2(3H)-one]
TGI (%) [3, 4]: 63% | TGI (%) [3, 5]: 87% | TGI (%) [3, 6]: 96%

Structure (SMILES): Cc1nc(C2c3c(-c4cccc5[nH]c(=O)oc45)n[nH]c3C(=O)N2CC(C)(F)F)ccc1F (single isomer, unassigned) [Example 23, 7-[5-(2,2-Difluoropropyl)-4-(5-fluoro-6-methylpyridin-2-yl)-6-oxo-1,4,5,6-tetrahydropyrrolo[3,4-c]pyrazol-3-yl]-1,3-benzoxazol-2(3H)-one (enantiomer)]
GI50 [1]: > 25 µM

Structure (SMILES): CC(F)(F)CN1C(=O)c2[nH]nc(-c3cccc4[nH]c(=O)oc34)c2C1c1cccc(Oc2ccc(F)cc2)c1 (single isomer, unassigned; (-)) [Example 53, (−)-7-{5-(2,2-Difluoropropyl)-4-[3-(4-fluorophenoxy)phenyl]-6-oxo-1,4,5,6-tetrahydropyrrolo[3,4-c]pyrazol-3-yl}-1,3-benzoxazol-2(3H)-one]
TGI (%) [3, 7]: 41% | TGI (%) [3, 8]: 83%

— patent US12240855B2, “Pyrrolopyrazole derivative” (DAIICHI SANKYO COMPANY, LIMITED, priority 2019, dated 2025)
